Source: a melting point compilation (Tetko et al.)

SMILES | melting point [°C]
Cc1cc(O)cc(O)c1C | 136
CN(C(=O)CN(CCO)CC(=O)N(C)C(C)(C)Cc1ccccc1)C(C)(C)Cc1ccccc1 | 104
Cc1ccc(S(=O)(=O)O)c(C)c1 | 57
O=C(O)c1ccc2[nH]ccc2c1 | 210
O=C(Nc1ccc(Br)cc1)c1c(O)cccc1O | 229
O=C1CCCN1c1ccc(Br)cc1 | 98 to 101
Oc1c(Br)cc(Br)c(Br)c1Br | 114
CC(CC(=O)c1ccc(Cl)cc1)C(=O)O (stereo unspecified) | 137 to 139
CCCCCCCCCCCCCCCCCC(=O)OCCCC | 27
O=C1CN=C(c2ccccc2)c2cc(Cl)ccc2N1CC(F)(F)F | 164
O=C(Nc1ccccc1)OCc1c([N+](=O)[O-])cccc1[N+](=O)[O-] | 138
CC1=NN(CN2CCCCC2)C(=O)/C1=N\Nc1cccc(O)c1 | 204 to 205
COc1ccc2cnc(C)cc2c1 | 115
O=c1c(C2CC(c3ccc(-c4ccc(Br)cc4)cc3)Cc3ccccc32)c(O)sc2ccccc12 (stereo unspecified) | 235
Cc1ccc(N)c(C(=O)O)c1 | 174 to 177
CCCCCCN1CCCC1=O | 4
c1ccc(C2=C(c3ccccc3)C(c3ccccc3)=C(c3ccccc3)C2)cc1 | 179 to 182
CCCCF | -134
CN(C)c1cccc(N(C)C)c1C#N | 71 to 73
CC(CCc1ccccc1)NC(C)C(O)c1cc(I)c(O)c(I)c1 (stereo unspecified) | 212
COc1ccc(C(=O)/C(=N\Nc2cc(Cl)ccc2Cl)S(=O)(=O)c2ccccc2)cc1 | 115

SMILES | melting point [°C]
N#CC1=C(N)n2nc(C(F)(F)F)nc2NC1c1ccc(Cl)cc1Cl (stereo unspecified) | 305 to 307
Cc1cc(C(=O)O)c(C)o1 | 135 to 139
CC(=O)Nc1ccc2c(c1)CCC2 | 106 to 108
Nc1ccc(C=Cc2ccc(N)cc2OS(=O)(=O)c2ccccc2)c(OS(=O)(=O)c2ccccc2)c1 | 250
CCc1ccccc1-c1ccccc1 | -6
CCCC(C)(CO)CO | 62.5
Cn1ncc2c(NNC3=CC(=O)c4ccccc4C3=O)ncnc21 | 226
CCC1c2ccccc2N(C)C12C=Cc1cccc([N+](=O)[O-])c1O2 (stereo unspecified) | 148
OCC1=CCN2CCC(O)C12 (stereo unspecified) | 120
O=C1c2ccccc2C(=O)c2cc(Br)ccc21 | 206
Cc1nsc(N)n1 | 202 to 209
C=CCc1cc(OC)c(OC)c(OC)c1OC | 25
Oc1c(Br)cc(F)cc1Br | 55
Nc1nn2c(-c3ccccc3)cc(=O)[nH]c2c1/N=N/c1c(Br)cc(Br)cc1Br | 316
O=C1NC(=O)C(=Cc2ccccc2)N1 | 222
OCC1CC1 | -60
Cc1c(NN=C2C(=O)NN=C2c2c(O)c3ccccc3n(C)c2=O)c(=O)n(-c2ccccc2)n1C | 200
O=C(O)c1cc(F)cc(Br)c1 | 143
COC(=O)[C@@H]1C[C@@H]2CSCN2[C@@]12C(=O)c1cccc3cccc2c13 | 172
CSc1nc(N)cc(N)n1 | 189 to 193
C=CCOc1c(Br)cc(C(C)(C)c2cc(Br)c(OCC=C)c(Br)c2)cc1Br | 119

SMILES | melting point [°C]
Nc1ccc(C(c2ccccc2)(c2ccccc2)c2ccccc2)cc1 | 258
COC(=O)C1=C(C(=O)OC)[C@@H]2C=C[C@H]1c1cc3ccccc3c(-c3ccccc3)c12 | 219
CC(O)c1ccccc1 (stereo unspecified) | 20
Cc1cc(C(C)(C)C)cc(C(C)(C)C)c1 | 32
FC(F)(F)C1N=NC(N=Cc2ccc(Cl)cc2)=N1 (stereo unspecified) | 234
FC(F)(F)c1ccc(Br)cn1 | 40
CCCCCCCCC=CCCCCCCCCOC(=O)OC1CCC2(C)C(=CCC3C2CCC2(C)C(C(C)CCCC(C)C)CCC32)C1 (stereo unspecified) | 20
Cc1cc(-c2ccc(N=C=O)c(C)c2)ccc1N=C=O | 71
CCOC(=O)/C(=C\c1ccccc1)c1ccccc1[N+](=O)[O-] | 95
CC(=S)Nc1ccccc1 | 77.5
O=C1C2CC=CCC2C(=O)N1SC(Cl)(Cl)Cl (stereo unspecified) | 178
O=C(NC(=O)c1c(F)cccc1F)Nc1cc(Cl)c(F)c(Cl)c1F | 225
Oc1c(Br)c(Br)c(O)c(Br)c1Br | 255 to 260
Cc1cc(Cl)ccc1OCC(=O)O | 120
N#Cc1cnc(N)s1 | 185
N#Cc1c(NC(=O)c2ccccc2Cl)sc2c1CCCC2 | 161 to 162
CC(=O)Nc1cc([N+](=O)[O-])c(/C=C/c2ccccc2)c([N+](=O)[O-])c1/C=C/c1ccccc1 | 171
CC(=O)OC1CC2C(C)C(=O)C3(C(OC(C)=O)CC4C(C)(C)CCC(OC(C)=O)C4(C=O)C13)C2OC(C)=O (stereo unspecified) | 250 to 252
COc1ccc(/N=N/c2c(N)nn3c(C)cc(C)nc23)cc1 | 201 to 203
